# Experimental data: paper PMC11858597, “Synthesis, Anticancer Screening, and In Silico Evaluations of Thieno[2,3-c]pyridine Derivatives as Hsp90 Inhibitors” (Pharmaceuticals, 2025)
# Key:
# PDL = assay: MTT assay, normal fibroblast cell line (PDL); assay type: cell-based, human; details: 72 h; for IC50: PDL normal fibroblasts
# From the text: To understand the selectivity of compounds, a normal fibroblast cell line (human periodontal ligament-PDL) is also included in this IC50 determination.
# (§1) The cancer cell lines MCF7 and T47D (breast cancer cells), HSC3 (head and neck cancer cells), and RKO (colorectal cancer cells) were kindly provided by Prof. Stephan Feller, Institute of Molecular Medicine, Martin Luther University, Halle, Germany. The human fibroblast (PDL) cell line was obtained as a kind gift from Prof. Khaled Al-Qaoud (Yarmouk University, Irbid, Jordan). All cell lines were cultured in Dulbecco’s Modified Eagle’s Medium (DMEM) supplemented with 10% fetal bovine serum, 100 µg/mL streptomycin, 100 U/mL penicillin, and 1% non-essential amino acid at 37 °C with 5% CO2 in a humidified CO2 incubator. The cell cultures were grown to confluence, and the medium was changed two times weekly.
# (§2) The MTT (3-[4,5-dimethylthiazol-2-yl]-2,5-diphenyl tetrazolium bromide) assay was used to investigate cell viability and to calculate the half-maximal inhibitory concentration (IC50) values of the compounds 6(a–k) including standard reference cisplatin. Furthermore, […] stock solutions of the compounds were prepared in DMSO where all compounds were completely soluble. Cells were seeded in 96-well tissue culture plates at a density of 6,000 cells/well for MCF7, T47D, and PDL cells and at a density of 4000 cells/well for RKO and HSC3 cells. After 24 h of seeding, investigated cells were treated with three concentrations (1, 10, and 100 µm) of the compounds for 72 h. At the end of the treatment time, the supernatant medium was aspirated, and 50 µL of fresh DMEM containing MTT (0.5 mg/mL) was added to each well. Cells were then incubated at 37 °C for 2–4 h. After that, the medium was completely removed, and 50 µL of DMSO was added to each well to dissolve the precipitated formazan crystals formed by viable cells. Cell viability, represented by the absorbance of the formazan solution, was measured at 570 nm using the Synergy HTX Multimode Reader (BioTek, Vermont, USA), and cell viability was determined as described in the literature. For each concentration, the relative cell viability was calculated as follows: relative cell viability = (mean treatment absorbance/mean control absorbance) × 100%. Assays were performed in triplicate on three independent experiments. […] IC50 values were then calculated using the four-parameter logistic function in the SigmaPlot software (version 12.5) and presented as the mean ± SD from three independent experiments.
# MCF7 = assay: MTT assay, MCF7 breast cancer cells; assay type: cell-based; details: for IC50: MCF7, 72 h; for inhibition at 1 µM / inhibition at 10 µM / inhibition at 100 µM / % cell growth inhibition: 72 h; for inhibition at 1 µM / inhibition at 10 µM / inhibition at 100 µM: read-out: % cell growth inhibition
# From the text: (§3) An MTT assay was used to evaluate the final compounds’ anticancer activity against MCF7 and T47D (breast cancer cells), HSC3 (head and neck cancer cells), and RKO (colorectal cancer cells) cell lines, using cisplatin as a reference standard. Table 1 presents the percentage growth inhibition of all compounds against the various cancer cell lines.
# as §1, §2
# RKO = assay: MTT assay, RKO colorectal cancer cells; assay type: cell-based; details: 72 h; for inhibition at 1 µM / inhibition at 10 µM / inhibition at 100 µM: read-out: % cell growth inhibition
# From the text: as §3, §1, §2
# HSC3 = assay: MTT assay, HSC3 head and neck cancer cells; assay type: cell-based; details: for inhibition at 1 µM / inhibition at 10 µM / inhibition at 100 µM: HSC-3, 72 h, read-out: % cell growth inhibition; for inhibition at 1 µM / inhibition at 10 µM / inhibition at 100 µM / % cell growth inhibition: 72 h; for IC50: HSC3, 72 h
# From the text: as §3, §1, §2
# T47D = assay: MTT assay, T47D breast cancer cells; assay type: cell-based; details: 72 h; for inhibition at 1 µM / inhibition at 10 µM / inhibition at 100 µM: read-out: % cell growth inhibition
# From the text: as §3, §1, §2
Structure (SMILES),"inhibition at 1 µM (MCF7; Homo sapiens, MCF7, 1 µM) [%]","inhibition at 10 µM (MCF7; Homo sapiens, MCF7, 10 µM) [%]","inhibition at 100 µM (MCF7; Homo sapiens, MCF7, 100 µM) [%]","inhibition at 1 µM (RKO; Homo sapiens, 1 µM) [%]","inhibition at 10 µM (RKO; Homo sapiens, 10 µM) [%]","inhibition at 100 µM (RKO; Homo sapiens, 100 µM) [%]","inhibition at 1 µM (HSC3; Homo sapiens, HSC3, 1 µM) [%]","inhibition at 10 µM (HSC3; Homo sapiens, HSC3, 10 µM) [%]","inhibition at 100 µM (HSC3; Homo sapiens, HSC3, 100 µM) [%]","inhibition at 1 µM (T47D; Homo sapiens, 1 µM) [%]","inhibition at 10 µM (T47D; Homo sapiens, 10 µM) [%]","inhibition at 100 µM (T47D; Homo sapiens, 100 µM) [%]",further results
CCOC(=O)c1c(NC(=O)CN2CCCCC2)sc2c1CCN(C(=O)OCC)C2 [6a],2.96,39.5,91.6,5.71,53,93.5,4.26,59.8,92.6,9.31,38.6,88.1,"IC50 (PDL; Homo sapiens, Fibroblast): > 100 µM; toxicity to normal fibroblast cell lines, PDL (PDL; PDL): no toxicity; IC50 (MCF7; Homo sapiens): 73.7 ± 4.3 µM; % cell growth inhibition (MCF7; MCF7, 1 µM): weak inhibition; IC50 (RKO; Homo sapiens): 24.4 ± 7.2 µM; IC50 (HSC3; Homo sapiens, HSC-3): 14.5 ± 4.3 µM; IC50 (T47D; Homo sapiens): 97.2 ± 4.4 µM"
"CCOC(=O)c1c(NC(=O)CN2CCC(C)CC2)sc2c1CCN(C(=O)OCC)C2 [6b, Diethyl 2-(2-(4-methylpiperidin-1-yl)acetamido)-4,7-dihydrothieno[2,3-c]pyridine-3,6-(5H)-dicarboxylate]",2.74,29.7,83.2,10.7,39.3,94.1,4.06,38,79.4,7.79,24.4,82,
"CCOC(=O)c1c(NC(=O)CN2CCNCC2)sc2c1CCN(C(=O)OCC)C2 [6c, Diethyl 2-(2-(piperazin-1-yl)acetamido)-4,7-dihydrothieno[2,3-c]pyridine-3,6(5H)-dicarboxylate]",0,22.1,81,17.1,30.9,93.6,6.71,30,83.4,3.7,28.1,80.8,
"CCOC(=O)c1c(NC(=O)CN2CCN(C)CC2)sc2c1CCN(C(=O)OCC)C2 [6d, Diethyl 2-(2-(4-methylpiperazin-1-yl)acetamido)-4,7-dihydrothieno[2,3-c]pyridine-3,6-(5H)-dicarboxylate]",1.42,3.7,79.3,0,0,94.4,0,0,83.9,0,2.54,82.1,
"CCOC(=O)c1c(NC(=O)CN2CCN(CC)CC2)sc2c1CCN(C(=O)OCC)C2 [6e, Diethyl 2-(2-(4-ethylpiperazin-1-yl)acetamido)-4,7-dihydrothieno[2,3-c]pyridine-3,6(5H)-dicarboxylate]",4.67,11.7,74.2,6.17,7.24,90.1,3.26,5.51,75.8,5.23,3.12,79.4,
"CCOC(=O)c1c(NC(=O)CN2CCN(C(=O)OC(C)(C)C)CC2)sc2c1CCN(C(=O)OCC)C2 [6f, Diethyl 2-(2-(4-(tert-butoxycarbonyl)piperazin-1-yl)acetamido)-4,7-dihydrothieno[2,3-c]-pyridine-3,6(5H)-dicarboxylate]",7.34,10,39,6.11,17.2,47.6,0,16.8,45.8,7.62,16.2,34.1,"% cell growth inhibition (MCF7; MCF7, 100 µM): weaker inhibition"
"CCOC(=O)c1c(NC(=O)CN2CCN(c3ccccc3OC)CC2)sc2c1CCN(C(=O)OCC)C2 [6g, Diethyl 2-(2-(4-(2-methoxyphenyl)piperazin-1-yl)acetamido)-4,7-dihydrothieno[2,3-c]-pyridine-3,6(5H)-dicarboxylate]",3.4,6.36,57.3,0.53,14.6,68.4,0,15.9,56.9,0,14.2,59.9,"% cell growth inhibition (MCF7; MCF7, 100 µM): weaker inhibition"
"CCOC(=O)c1c(NC(=O)CN2CCOCC2)sc2c1CCN(C(=O)OCC)C2 [6h, Diethyl 2-(2-morpholinoacetamido)-4,7-dihydrothieno[2,3-c]pyridine-3,6(5H)-di-carboxylate]",0,20.3,77.2,8.76,19.1,93.3,0,9.88,77.9,0,17.8,78.2,
"CCOC(=O)c1c(NC(=O)CN2CCN(C(=O)c3ccco3)CC2)sc2c1CCN(C(=O)OCC)C2 [6j, Diethyl 2-(2-(4-(furan-2-carbonyl)piperazin-1-yl)acetamido)-4,7-dihydrothieno[2,3-c]-pyridine-3,6(5H)-dicarboxylate]",0,16.2,76.5,0,17.3,96.8,0,29.9,86.4,0,1.19,76,
"CCOC(=O)c1c(NC(=O)CN2CCN(c3ncccn3)CC2)sc2c1CCN(C(=O)OCC)C2 [6k, Diethyl 2-(2-(4-(pyrimidin-2-yl)piperazin-1-yl)acetamido)-4,7-dihydrothieno[2,3-c]-pyridine-3,6(5H)-dicarboxylate]",0,12.2,80,0,22.2,96.1,0,11.3,86.2,0,10.1,76.5,
"N.N.[Cl][Pt][Cl] [Cisplatin, reference compound]",,,,,,,,,,,,,"IC50 (PDL): 15.5 ± 2.1 µM; % cell growth inhibition (MCF7; MCF7, 1 µM): 11.23%; % cell growth inhibition (MCF7; MCF7, 10 µM): 57.32%; % cell growth inhibition (MCF7; MCF7, 100 µM): 97.41%; IC50 (MCF7): 5.8 ± 0.9 µM; % cell growth inhibition (RKO; 1 µM): 46.06%; % cell growth inhibition (RKO; 10 µM): 92.77%; % cell growth inhibition (RKO; 100 µM): 95.04%; IC50 (RKO): 1.7 ± 0.4 µM; % cell growth inhibition (HSC3; HSC3, 1 µM): 29.33%; % cell growth inhibition (HSC3; HSC3, 10 µM): 84.74%; % cell growth inhibition (HSC3; HSC3, 100 µM): 97.87%; IC50 (HSC3): 2.7 ± 0.2 µM; % cell growth inhibition (T47D; 1 µM): 29.09%; % cell growth inhibition (T47D; 10 µM): 89.65%; % cell growth inhibition (T47D; 100 µM): 98.20%; IC50 (T47D): 2.6 ± 0.6 µM"
